Data reported in PMC9586930, “Molecular insights into the distinct signaling duration for the peptide-induced PTH1R activation” (Nature Communications, 2022).
Changes are numbered by the printed parent chain.

Columns and labels:
PTH1R (WT) = target: T1, PTH1R (WT) (Homo sapiens, UniProt Q03431); experiment: Wash out assay, duration of cAMP signaling; type: cell-based; details: ligand 10^-6 M, 10 min ligand-on phase, 70 min wash-out phase, HEK293T, GloSensor
T1 construct: a flag-tag was fused to the N terminal of full-length PTH1R (WT or mutant); expressed in transfected cells; host or cells: HEK293T
T1 sequence (Q03431 27-593): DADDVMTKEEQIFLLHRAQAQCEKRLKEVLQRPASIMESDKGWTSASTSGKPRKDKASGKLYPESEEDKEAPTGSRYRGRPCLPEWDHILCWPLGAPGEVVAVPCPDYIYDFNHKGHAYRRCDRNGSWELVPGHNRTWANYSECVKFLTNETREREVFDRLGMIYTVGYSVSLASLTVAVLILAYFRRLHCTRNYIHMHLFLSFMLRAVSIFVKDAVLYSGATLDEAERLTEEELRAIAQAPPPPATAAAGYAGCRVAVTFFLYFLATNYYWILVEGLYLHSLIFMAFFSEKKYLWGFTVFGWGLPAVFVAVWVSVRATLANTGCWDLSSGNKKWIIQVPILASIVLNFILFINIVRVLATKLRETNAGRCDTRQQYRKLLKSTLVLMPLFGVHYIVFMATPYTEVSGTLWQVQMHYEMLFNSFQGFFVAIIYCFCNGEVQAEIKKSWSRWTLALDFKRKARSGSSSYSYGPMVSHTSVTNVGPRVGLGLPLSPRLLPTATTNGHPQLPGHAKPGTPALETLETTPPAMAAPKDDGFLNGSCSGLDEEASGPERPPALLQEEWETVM
Method: Human embryonic kidney 293 T (HEK293T) cells were transfected with a plasmid mixture consisting of pcDNA3.1-flag-PTH1R (WT) and the cAMP biosensor GloSensor-22F (Promega) at a ratio of 2:1. After 24 h, transfected cells were plated onto a 96-well plate, which was treated with cell adherent reagent (Applygen) in advance. After another 12 h, cells were treated with Hank’s balanced salt solution for starvation and then incubated in CO2-independent media containing 4% GloSensor cAMP Reagent (Promega) at a volume of 40 μl per well and incubated for 20 min at RT before measurements for baseline luminescence (Spark Multimode microplate reader, TECAN). Next, test ligands (10 μl) were added at 10^−6 M that approximated the respective Emax (efficacy) value obtained for that “ligand- on” phase were similar for the different ligands. Then the development of cAMP-dependent luminescence was measured for 10 min (“ligand-on” phase); the plates were then removed from the plate reader, the cells were rinsed twice to remove unbound ligand, treated with fresh media containing luciferin, and luminescence was again recorded for an additional 70 min (“wash-out” phase)[18]. Finally, data were analyzed using GraphPad Prism.

PTH1R Q440A mutant = target: T2, PTH1R Q440A mutant (Homo sapiens, UniProt Q03431, Q440A); experiment: cAMP accumulation assay (GloSensor), PTH1R Q440A; type: cell-based; details: for ΔpEC50±SEM: relative to WT, n = 3 in triplicate; for ΔpEC50±SEM / Span±SEM: mean ± SEM; for Span±SEM: window between maximal response (Emax) and vehicle, n = 3
T2 construct: a flag-tag was fused to the N terminal of full-length PTH1R (WT or mutant); expressed in transfected cells; host or cells: HEK293T
T2 sequence (Q03431 27-593 Q440A): T1 sequence (Q03431 27-593) with Q414A
Method: Human embryonic kidney 293 T (HEK293T, ATCC: CRL-1573) cells were transfected with a plasmid mixture consisting of pcDNA3.1-flag-PTH1R (WT or mutants) and the cAMP biosensor GloSensor-22F (Promega) at a ratio of 2:1 (see Supplementary Table 7 for a list of primers used in this study). After 24 h, transfected cells were plated onto a 384-well plate, which was treated with cell adherent reagent (Applygen) in advance. After another 12 h, cells were treated with Hank’s balanced salt solution for starvation and then incubated in CO2-independent media containing 4% GloSensor cAMP Reagent (Promega) at a volume of 5 μl per well and incubated for 20 min at RT before measurements for baseline luminescence (Spark Multimode microplate reader, TECAN). Next, test ligands were added at different concentrations from 10^−6 to 10^−13 M before second measurement. Finally, data were normalized to 100% of the maximal PTH (1-34) response for WT PTH1R using a sigmoidal dose-response in GraphPad Prism.
Statistical analyses were performed on at least three individual datasets and analysed using GraphPad Prism software. Bars represent differences in the calculated agonist potency (pEC50) and maximum agonist response (Emax) for each mutant relative to the WT receptor. Data are mean± s.e.m. from at least three independent experiments, performed in triplicates. ns, not significant, ^nsP > 0.01; ^*P < 0.01; ^**P < 0.001; ^***P < 0.0001 (one-way analysis of variance (ANOVA) followed by Dunnett’s test, compared with the response of the WT). For dose-response experiments, data were normalized and analyzed using nonlinear curve fitting for the log (agonist) versus response (three parameters) curves.

span (from the WT) (PTH1R Q440A mutant; PTH1R Q4407.38A, replicate 1) | ΔpEC50 (from the WT) (PTH1R Q440A mutant; PTH1R Q4407.38A, replicate 1) | span (from the WT) (PTH1R Q440A mutant; PTH1R Q4407.38A, replicate 2) | ΔpEC50 (from the WT) (PTH1R Q440A mutant; PTH1R Q4407.38A, replicate 2) | span (from the WT) (PTH1R Q440A mutant; PTH1R Q4407.38A, replicate 3) | ΔpEC50 (from the WT) (PTH1R Q440A mutant; PTH1R Q4407.38A, replicate 3) | ΔpEC50±SEM (PTH1R Q440A mutant) | ΔpEC50 (from the WT) (PTH1R Q440A mutant; replicate 1) | ΔpEC50 (from the WT) (PTH1R Q440A mutant; replicate 2) | ΔpEC50 (from the WT) (PTH1R Q440A mutant; replicate 3) | Span±SEM (PTH1R Q440A mutant) | Substance | duration of cAMP signaling after wash-out (PTH1R (WT))
337.5 | -0.045 | 279.8 | -0.009 | 250.7 | 0.015 | -0.01±0.02 | -0.045 | -0.009 | 0.015 | 289.33±25.51 | H-AVAEIQLMHQRAKWIQDARRRAFLHKLIAEIHTAEI-OH [LA-PTH, long-acting PTH analog, modified PTH/PTHrP hybrid] | stronger activity of sustained signaling when compared with the PTH
372.2 | -0.177 | 273.2 | -0.116 | 248 | -0.201 | -0.16±0.03 | -0.177 | -0.116 | -0.201 | 297.80±37.90 | H-SVSEIQLMHNLGKHLNSMERVEWLRKKLQDVHNF-OH [PTH, Teriparatide, human PTH 1-34, long-acting peptide agonist of PTH1R] | potent prolonged cAMP signaling

Substance | span (from the WT) (PTH1R Q440A mutant; PTH1R Q4407.38A, replicate 1) | ΔpEC50 (from the WT) (PTH1R Q440A mutant; PTH1R Q4407.38A, replicate 1) | span (from the WT) (PTH1R Q440A mutant; PTH1R Q4407.38A, replicate 2) | ΔpEC50 (from the WT) (PTH1R Q440A mutant; PTH1R Q4407.38A, replicate 2) | span (from the WT) (PTH1R Q440A mutant; PTH1R Q4407.38A, replicate 3) | ΔpEC50 (from the WT) (PTH1R Q440A mutant; PTH1R Q4407.38A, replicate 3) | ΔpEC50±SEM (PTH1R Q440A mutant) | ΔpEC50 (from the WT) (PTH1R Q440A mutant; replicate 1) | ΔpEC50 (from the WT) (PTH1R Q440A mutant; replicate 2) | ΔpEC50 (from the WT) (PTH1R Q440A mutant; replicate 3) | Span±SEM (PTH1R Q440A mutant) | duration of cAMP signaling after wash-out (PTH1R (WT))
H-AVSEHQLLHDKGKSIQDLRRRELLEKLL-{Aib}-KLHTA-NH2 [ABL, Abaloparatide, an analog of PTHrP, short-acting PTH1R agonist] | 252.6 | -1.026 | 278.7 | -0.991 | 338 | -1.125 | -1.05±0.04 | -1.026 | -0.991 | -1.125 | 289.77±25.27 | obvious transient cAMP signaling
